Assay results reported in ChEMBL document CHEMBL1135202, “Design, synthesis and evaluation of 4-imidazolylflavans as new leads for aromatase inhibition” (Bioorg Med Chem Lett, 2002).

Tests used:
Set-up in all cases: species or system Placenta
Aromatase [1] = target: T1, Aromatase (Homo sapiens, UniProt P11511); assay: Relative potency for aromatase inhibition in human placental microsomes compared to aminoglutethimide
T1 sequence (P11511 whole entry): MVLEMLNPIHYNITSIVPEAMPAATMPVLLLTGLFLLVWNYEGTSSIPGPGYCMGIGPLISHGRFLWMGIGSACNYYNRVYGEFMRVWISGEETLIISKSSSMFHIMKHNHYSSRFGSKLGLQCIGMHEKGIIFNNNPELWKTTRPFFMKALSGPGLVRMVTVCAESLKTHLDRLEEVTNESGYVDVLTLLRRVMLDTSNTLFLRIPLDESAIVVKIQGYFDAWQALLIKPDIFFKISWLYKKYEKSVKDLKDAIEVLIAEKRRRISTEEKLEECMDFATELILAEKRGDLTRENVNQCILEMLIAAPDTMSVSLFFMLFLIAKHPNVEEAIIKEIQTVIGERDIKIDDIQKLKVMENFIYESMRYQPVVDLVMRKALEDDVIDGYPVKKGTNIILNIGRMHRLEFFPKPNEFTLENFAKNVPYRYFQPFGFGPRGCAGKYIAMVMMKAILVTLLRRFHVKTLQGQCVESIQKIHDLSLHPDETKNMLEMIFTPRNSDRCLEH

Aromatase [2] = target: T1, Aromatase; assay: Relative potency for aromatase inhibition in human placental microsomes compared to flavanone
Aromatase [3] = target: T1, Aromatase; assay: Inhibition of aromatase activity in human placental microsomes

SMILES: Oc1ccc2c(c1)OC(c1ccccc1)CC2n1ccnc1 (stereo not drawn)
- Relative potency (Aromatase [1]): 127
- Relative potency (Aromatase [2]): 93
- IC50 (Aromatase [3]): 41 nM
